Columns and labels:
[1] = Tolerability in HSAX2655-tumor bearing mice (body weight, survival); format: in vivo; conditions: p.o., q24h, Compound A 30 mg/kg, Compound C 75 mg/kg, day 14 post 1st treatment; for Host Survival: survivors/group
Protocol: Compounds A and C were formulated fresh for each administration. The compounds were dissolved in 0.5% methylcellulose. For efficacy experiments, mice were randomized into groups of n=5 and treated for 14 days. Compound A was injected at 30 mg/kg and Compound C at 75, 150 and 250 mg/kg. Mice were treated daily (q24 h) p.o. at 10 ml/kg for both drugs. On the last day of experiment, mice from each treatment group were sacrificed 4 and 24 h post last treatment and tumors were snap-frozen.
Efficacy and tolerability were assessed by determining tumor volume and body weight, respectively. Tumor volume (TVol), determined from caliper measurements (using the formula I*w*h*π/6) were measured three times per week. Tumor response was quantified by the change in tumor volume (endpoint minus starting value in mm^3) as the T/C i.e.
[formula] The body-weight (BW) of the mice was measured three times per week allowing calculation at any particular time-point relative to the day of initiation of treatment (day 0) of both the percentage change in BW (Δ % BW).
Differences between the means of TVol and BW were assessed on the endpoint ΔTvol or % ΔBW using a 1-way ANOVA with Dunnett or Tukey's tests post-hoc. Linear correlations were explored by determining Pearson correlation coefficient, with P<0.05 considered as significant.

HSAX2655 tumor = assay: Well differentiated liposarcoma (WDLPS) patient-derived in vivo model HSAX2655, efficacy; parameters: species or system Harlan nude mice; conditions: p.o., q24h, Compound A 30 mg/kg, Compound C 75 mg/kg; for Tumor T/C: day 14 post 1st treatment; for Tumor ΔTvol: day 37 post transplantation (day 14 post 1st treatment)
Protocol: PDX tumors were induced by transplanting subcutaneously frozen pieces of tumors in the right flank of Harlan nude mice. After several weeks of growth, donor animals were sacrificed and tumors were taken out and cut in 3×3×3 mm^3 pieces. Each tumor piece was transplanted subcutaneously in the right flank of naive Harlan nude mice. Efficacy experiment could start 30 days post transplantation. Compounds A and C were formulated fresh for each administration. The compounds were dissolved in 0.5% methylcellulose. For efficacy experiments, mice were randomized into groups of n=5 and treated for 14 days. Compound A was injected at 30 mg/kg and Compound C at 75, 150 and 250 mg/kg. Mice were treated daily (q24 h) p.o. at 10 ml/kg for both drugs. On the last day of experiment, mice from each treatment group were sacrificed 4 and 24 h post last treatment and tumors were snap-frozen. Efficacy and tolerability were assessed by determining tumor volume and body weight, respectively. Tumor volume (TVol), determined from caliper measurements (using the formula I*w*h*π/6) were measured three times per week. Tumor response was quantified by the change in tumor volume (endpoint minus starting value in mm^3) as the T/C i.e. [formula] In the case of tumor regression, the tumor response was quantified by the percentage of regression of the starting TVol, ie Differences between the means of TVol and BW were assessed on the endpoint ΔTvol or % ΔBW using a 1-way ANOVA with Dunnett or Tukey's tests post-hoc. Linear correlations were explored by determining Pearson correlation coefficient, with P<0.05 considered as significant. A non-statistical analysis of the combination effects of therapy on the efficacy were calculated using a modification of the method described by Clark (1997) to obtain a Combination Index (CI). Thus, multiplication of the AUC-T/Cs for single agents A and B was compared to the AUC-T/C obtained for the actual combination A+B.

[2] = tested on: liposarcoma cell line LP6; assay: Microscopy (nuclei count) proliferation assay, 72 hrs, LP6 cells; format: cell-based; conditions: single agent
Protocol: (§1) Compounds B and C were dissolved in 100% DMSO (Sigma, Catalog number D2650) at concentrations of 10 mM and stored at −20° C. until use. Compounds were arrayed in 300 uL deep well 384-well plates (BrandTec, Catalog number 701355) at 8× the highest final concentration. Row and column dilutions were prepared separately using a Bravo liquid handler (Agilent Technologies). Dilutions were made at 1:2 giving a total of 10 dilutions for each compound. Once completed the row and column dilution plates were combined 1:1 giving a final stamping plate at 4× concentration.
(§2) The cell lines 449b, 778 and LP6 were cultured in RPMI1640 (ATCC, Catalog number 30-2110) supplemented with 10% FBS (HyClone, Catalog number SH30071.03) at 37° C. and 5% CO2. In all cases cells were thawed from frozen stocks, expanded through ≥1 passage using 1:6 dilutions. Cells were counted and assessed for viability using a ViCell counter (Beckman-Coulter). The identity of all the cell lines was confirmed by SNP profiling. […]
(§3) An automated image analysis pipeline was established using custom-made scripts in the open-source, statistical programming language R, and functions of the BioConductor package EBImage. The goal was to quantify the number of viable nuclei (cells) per well as an approximation for cell viability. […]

[3] = tested on: liposarcoma cell line 449b; assay: Microscopy (nuclei count) proliferation assay, 72 hrs, 449b cells; format: cell-based; conditions: single agent
Protocol: as §1, §2, §3

[4] = tested on: liposarcoma cell line 778; assay: Microscopy (nuclei count) proliferation assay, 72 hrs, 778 cells; format: cell-based; conditions: single agent
Protocol: as §1
The cell lines 449b, 778 and LP6 were cultured in RPMI1640 (ATCC, Catalog number 30-2110) supplemented with 10% FBS (HyClone, Catalog number SH30071.03) at 37° C. and 5% CO2. In all cases cells were thawed from frozen stocks, expanded through ≥1 passage using 1:6 dilutions. Cells were counted and assessed for viability using a ViCell counter (Beckman-Coulter). The identity of all the cell lines was confirmed by SNP profiling.
All cells were seeded at a concentration of […] cells/mL in 30 uL RPMI1640 media using a BioTek MicroFill (BioTek). Four 384-well plates were prepared per cell line (Greiner bio-one, catalog number 781091). The next day, compound was added using Bravo liquid handler. […] To other plates, compound was added and plates were incubated for 72 hrs. Following incubation period, 10 ul of the media was removed using the ELx405 Microplate Washer (BioTek/Thermo Scientific). […]
as §3

Structure (SMILES)	Host ΔBW [1]	Host Survival [1]	Tumor T/C (HSAX2655 tumor)	Tumor ΔTvol (HSAX2655 tumor)	IC50 [2]	IC50 [3]	IC50 ([4]; 72 h)	IC50 [4]
COc1cc2c(cc1OC(C)C)[C@H](c1ccc(Cl)cc1)N(c1ccc(N(C)C[C@H]3CC[C@H](N4CCN(C)C(=O)C4)CC3)cc1)C(=O)C2 [Compound A, (S)-1-(4-Chloro-phenyl)-7-isopropoxy-6-methoxy-2-(4-{methyl-[4-(4-methyl-3-oxo-piperazin-1-yl)-trans-cyclohexylmethyl]-amino}-phenyl)-1,4-dihydro-2H-isoquinolin-3-one]	6.9 ± 2.0%	5/5	6%	24 ± 12 ^a mm^3				
CN(C)C(=O)c1cc2cnc(Nc3ccc(N4CCNCC4)cn3)nc2n1C1CCCC1 [Compound C, 7-Cyclopentyl-2-(5-piperazin-1-yl-pyridin-2-ylamino)-7H-pyrrolo[2,3-d]pyrimidine-6-carboxylic acid dimethylamide]	4.7 ± 2.3%	5/5	18%	66 ± 18 ^a mm^3	475 nM	130 nM	59.3 nM	
COc1ncc(-c2nc3c(n2C(C)C)[C@H](c2ccc(Cl)cc2)N(c2cc(Cl)cn(C)c2=O)C3=O)c(OC)n1 [Compound B, (S)-5-(5-Chloro-1-methyl-2-oxo-1,2-dihydro-pyridin-3-yl)-6-(4-chloro-phenyl)-2-(2,4-dimethoxy-pyrimidin-5-yl)-1-isopropyl-5,6-dihydro-1H-pyrrolo[3,4-d]imidazol-4-one]					86 nM	27.7 nM	46.6 nM	64.6 nM

From patent US10220038B2, “Pharmaceutical combinations” (Novartis AG, priority 2013, dated 2019)
